Legend:
dry eye mice [1] = test: Ocular surface sodium fluorescein staining in dry eye mice; assay type: in vivo, male C57BL/6 experimental mice; settings: for corneal fluorescein sodium staining scores compared to cyclosporine eyedrops: 0.04% compound, comparison with cyclosporine eyedrops; for corneal fluorescein sodium staining scores compared to cyclosporine eyedrops / corneal fluorescein sodium staining scores: 5 µl per eye, twice daily, one week; for corneal fluorescein sodium staining scores: ocular surface, 0.04% compound or commercial cyclosporine eyedrops, versus carrier group; for area of corneal damage (sodium fluorescein staining photograph): compared to the carrier group, Figure 2
Procedure: (§1) Experimental animals: male C57BL/6 experimental mice aged 6-8 weeks.
(§2) Experimental reagents and consumables: phenol red cotton line, 1% sodium fluorescein solution, ? 0.05% cyclosporin eyedrops (II) from Xingqi Eyedrops Company, 0.
(§3) At the end of 2 weeks, the dry eye mice were randomly divided into four groups, with 7 mice in each group.
(§4) Each eye of every mouse received 5 µl of […] through ocular surface administration, twice daily. Another group of 7 male C57BL/6 experimental mice aged 6-8 weeks was kept in a thermostatic blast drying oven with controlled environmental humidity of 50% and temperature of 25°C, and received an empty carrier as a physiological control in the third week.
(§5) All mice were evaluated for ocular surface damage recovery by ocular surface fluorescein sodium staining scores on the third weekend, and the tear secretion of mice was measured with phenol red surface lines. To be more specific, the phenol red surface line was placed in the conjunctival sac of a mouse in the anesthesia state for 30 seconds, and then the discoloration length of the phenol red surface line was measured. 2 µl of 1% sodium fluorescein solution was then administered through ocular surface, and photographs were taken under a cobalt blue lamp for scoring and statistics.

dry eye mice [2] = test: Tear secretion by phenol red cotton thread in dry eye mice; assay type: in vivo, male C57BL/6 experimental mice; settings: thread 30 seconds in conjunctival sac, compared to the vehicle group, Figure 3
Procedure: as §1, §2, §3, §4, §5

SMS2 = molecular target: T1, SMS2 (Homo sapiens, UniProt Q8NHU3); test: SMS2 inhibitory activity in vitro, HPLC fluorescence quantitative detection (C6-NBD-ceramide to C6-NBD-SM); assay type: biochemical; settings: SMS2 pure enzyme, 37°C, 30 minutes, average of two measurements; for inhibition at 1 µM: 1 µM test compound, read-out: Inhibition rate on SMS2 at C/µM 1; for inhibition at 10 µM: 10 µM test compound, read-out: Inhibition rate on SMS2 at C/µM 10
T1 construct: CAO, Yu research team, National Protein Scientific Center (Shanghai); supplied by an outside laboratory, not a commercial vendor
T1 sequence (Q8NHU3 1-365): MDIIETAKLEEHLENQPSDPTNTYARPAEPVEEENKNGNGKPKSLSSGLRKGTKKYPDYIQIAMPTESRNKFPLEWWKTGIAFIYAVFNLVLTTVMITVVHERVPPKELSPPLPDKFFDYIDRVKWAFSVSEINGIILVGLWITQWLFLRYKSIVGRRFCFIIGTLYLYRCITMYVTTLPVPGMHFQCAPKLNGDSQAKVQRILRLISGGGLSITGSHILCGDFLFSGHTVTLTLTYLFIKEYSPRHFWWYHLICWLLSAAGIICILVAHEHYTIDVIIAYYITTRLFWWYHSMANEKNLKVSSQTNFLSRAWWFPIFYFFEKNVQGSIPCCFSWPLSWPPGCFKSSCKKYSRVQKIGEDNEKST
Description: • 1. Electro-thermostatic water bath, from Shanghai Yiheng Technology Co., Ltd.); • 2. Vortex Mixer, with model ID of XW-80A, from Shanghai Jingke Industrial Co., Ltd.; • 3. […] High Performance Liquid Chromatography Agilent 1100, equipped with a quaternary pump, vacuum degassing, and FLD fluorescence detector, from Agilent Technologies, Palo Alto, CA, USA; • 5. HPLC column COSMOSIL 5C18-MS-II (4.6mm I.D. X 250mm); • 6. […] The organic solvents used in the present disclosure were purchased from Shanghai National Reagent Company, wherein methanol was pure chromatography; water was ultra-pure water which is filtrated by Milli-Q pump, deionized and ultra-filtrated with 0.22 µm membrane; and other biological consumables were purchased from domestic companies; • 8. Preparation of test compound solutions: each test compound was accurately weighed and dissolved in an appropriate volume of DMSO to prepare a 10 mmol/L stock solution. The stock solution was then diluted with an appropriate volume of DMSO to achieve the desired working concentration; • 9. SMS2 pure enzyme, DDM solution and buffer solution were provided by CAO, Yu research team from National Protein Scientific Center (Shanghai).
79 µl of the diluted enzyme solution were transferred into a 1.5 mL EP tube, 1 µl of inhibitor DMSO solution were added thereto, vortexing for 15 seconds, followed by standing at room temperature for 5 minutes. 20 µl of a mixed solution of DMPC and C6-NBD-ceramide were added, vortexing for 15 seconds, and incubated at 37°C for 30 minutes. 200 µl of anhydrous ethanol were added to quench the reaction, vortexing for 15 seconds. 200 µl of the reaction solution were taken out and stored at 4°C and avoided light for HPLC detection.
The peak area values of A(sm) and A(ceramide) in the HPLC chromatogram corresponding to C6-NBD-SM and C6-NBD-Ceramide in the DMSO group and inhibitor group samples were analyzed and recorded, and the inhibition rate of the test compound was calculated according to the following formula. Inhibition rate = (Peak area values of DMSO group−Peak area values of Inhibitor group)/(Peak area values of DMSO group) × 100% [formula]

Aβ = Aβ (Homo sapiens, UniProt P05067); settings: literature value, Deepak et al., 2020; read-out: inhibiting the aggregation of Aβ, EC50; cited from earlier work
Sequence of Aβ (P05067 672-713 limits assumed): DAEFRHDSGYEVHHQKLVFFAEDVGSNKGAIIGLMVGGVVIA

SMILES | inhibition at 1 µM (SMS2) | inhibition at 10 µM (SMS2) | further results
O=C(Nc1cccnc1)c1sccc1OCc1cc(F)ccc1Cl [1-2, 3-(2-chloro-5-fluorobenzyloxy)-N-(pyridin-3-yl)thiophene-2-carboxamide] | – | – | corneal fluorescein sodium staining scores compared to cyclosporine eyedrops (dry eye mice [1]): statistically significant advantages; corneal fluorescein sodium staining scores (dry eye mice [1]): reduction in corneal fluorescein sodium staining scores; area of corneal damage (sodium fluorescein staining photograph) (dry eye mice [1]): can reduce the area of corneal damage; tear secretion (discoloration length of phenol red cotton thread) (dry eye mice [2]): exhibited an increasing trend compared to the vehicle group
CCCCCCCCOc1ccccc1COc1ccsc1C(=O)Nc1cccnc1 [1-31, 3-(2-(octyloxy)benzyloxy)-N-(pyridin-3-yl)thiophene-2-carboxamide] | – | – | corneal fluorescein sodium staining scores compared to cyclosporine eyedrops (dry eye mice [1]): statistically significant advantages; corneal fluorescein sodium staining scores (dry eye mice [1]): reduction in corneal fluorescein sodium staining scores; area of corneal damage (sodium fluorescein staining photograph) (dry eye mice [1]): can reduce the area of corneal damage; tear secretion (discoloration length of phenol red cotton thread) (dry eye mice [2]): exhibited an increasing trend compared to the vehicle group
O=C(Nc1nncs1)c1sccc1OCc1ccccc1 [12-3, 3-benzyloxy-N-(1,3,4-thiadiazol-2-yl)thiophene-2-carboxamide] | -8% | – | –
O=C(Nc1cc(F)ccn1)c1sccc1OCc1ccccc1 [12-4, 3-benzyloxy-N-(4-fluoropyridin-2-yl)thiophene-2-carboxamide] | 3% | – | –
O=C(Nc1cccnc1)c1sccc1OCc1ccccc1N1C(=O)c2ccccc2C1=O [12-5, 3-(2-(1,3-dioxoisoindolin-2-yl)benzyloxy)-N-(pyridin-3-yl)thiophene-2-carboxamide] | – | 4% | –
O=C(Nc1ccc2c(c1)oc1ccccc12)c1sccc1OCc1ccccc1 [12-6, 3-(benzyloxy)-N(dibenzo[b,d]furan-3-yl)thiophene-2-carboxamide] | -5% | – | –
O=C(Nc1ccc2c(c1)Cc1ccccc1-2)c1sccc1OCc1ccccc1 [12-7, 3-(benzyloxy)-N-(9H-fluoren-2-yl)thiophene-2-carboxamide] | -16% | – | –
Cc1ccc(NC(=O)Cc2ccccc2COc2ccsc2C(=O)Nc2cccnc2)nc1 [12-8, 3-(2-(2-((5-methylpyridin-2-yl)amino)-2-oxoethyl)benzyloxy)-N-(pyridin-3-yl) thiophene-2-carboxamide] | – | 7% | –
Cc1nc(OCc2ccccc2)c(C(=O)Nc2cccnc2)s1 [12-9, 4-(benzyloxy)-2-methyl-N-(pyridin-3-yl)thiazole-5-carboxamide] | -2% | – | –
CC(C)=CCC/C(C)=C/CC[C@@]1(C)C=Cc2c(cc(C)c(C(=O)O)c2O)O1 [Daurichromonic acid] | – | – | EC50 (Aβ): 57 µM

Continued, in another order:

inhibition at 1 µM (SMS2) | inhibition at 10 µM (SMS2) | SMILES | further results
-30% | – | O=C(Nc1cc(F)c(F)c(F)c1)c1sccc1OCc1ccccc1 [12-10] | –
7% | – | O=C(Nc1ccncc1)c1sccc1OCc1ccccc1 [12-11] | –
7% | – | Cc1ccc(NC(=O)c2sccc2OCc2ccccc2)cn1 [12-12] | –
9% | – | O=C(Nc1ccc(F)nc1)c1sccc1OCc1ccccc1 [12-13] | –
– | 10% | O=C(Nc1ccc(C(F)(F)F)nc1)c1sccc1OCc1ccccc1 [12-14] | –
– | 16% | O=C(Nc1cccnc1)c1ncccc1OCc1ccccc1 [12-15, 3-benzyloxy-N-(pyridin-3-yl)pyridin-2-carboxamide] | –
– | 17% | O=C(Nc1cccnc1)c1cnccc1OCc1ccccc1 [12-16, 4-benzyloxy-N-(pyridin-3-yl)pyridin-3-carboxamide] | –
– | 27% | O=C(Nc1cccnc1)c1ccncc1OCc1ccccc1 [12-17, 3-benzyloxy-N-(pyridin-3-yl)pyridin-4-carboxamide] | –
– | 22% | O=C(Nc1cccnc1)c1cccnc1OCc1ccccc1 [12-18, 2-benzyloxy-N-(pyridin-3-yl)pyridin-3-carboxamide] | –
– | 18% | O=C(Nc1cccnc1)c1cncnc1OCc1ccccc1 [12-19, 4-benzyloxy-N-(pyridin-3-yl)pyrimidin-5-carboxamide] | –
– | 16% | O=C(Nc1cccnc1)c1nccnc1OCc1ccccc1 [12-20] | –

Reference: EP4768480A1, “ALKOXY THIOPHENE ACYL ARYLAMINE COMPOUNDS AND USE THEREOF” (priority 2024, dated 2025)
